Source: patent publication US9212135B2, “Phenylthioacetate compounds, compositions and methods of use” (Ardea Biosciences, Inc., priority 2010, dated 2015)

Each compound was assayed against T1, URAT1 (Homo sapiens, UniProt Q96S37) (assay: URAT1-model assay (14C-uric acid transport in HEK293/URAT1-model cells)). Conditions: 125 μM 14C-uric acid, 10 minutes at room temperature, read-out: URAT-1 model cell-based C14 EC50 Ranking.
T1 sequence (Q96S37 1-553): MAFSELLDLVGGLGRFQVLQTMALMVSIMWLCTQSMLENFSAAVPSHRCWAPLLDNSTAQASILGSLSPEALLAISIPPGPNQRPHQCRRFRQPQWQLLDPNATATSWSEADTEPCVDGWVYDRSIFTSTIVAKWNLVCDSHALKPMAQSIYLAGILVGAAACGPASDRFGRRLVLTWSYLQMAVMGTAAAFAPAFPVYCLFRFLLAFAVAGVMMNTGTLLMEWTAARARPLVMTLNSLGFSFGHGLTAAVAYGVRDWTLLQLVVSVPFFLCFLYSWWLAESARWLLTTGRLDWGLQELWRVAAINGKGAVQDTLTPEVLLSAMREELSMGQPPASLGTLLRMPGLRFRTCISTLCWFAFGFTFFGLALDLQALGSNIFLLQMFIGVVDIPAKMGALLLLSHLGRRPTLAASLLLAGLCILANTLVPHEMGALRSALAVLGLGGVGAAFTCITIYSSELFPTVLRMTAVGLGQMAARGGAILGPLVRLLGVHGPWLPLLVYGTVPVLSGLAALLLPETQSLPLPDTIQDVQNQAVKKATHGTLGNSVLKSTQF
Experimental: HEK293 human embryonic kidney cells (ATCC# CRL-1573) were propagated in EMEM tissue culture medium as described by ATCC in an atmosphere of 5% CO2 and 95% air. Transfections of HEK293 cells with a model URAT1 construct was performed using L2000 transfection reagent (Invitrogen) as described by the manufacturer. After 24 h the transfected cells were split into 10 cm tissue culture plates and grown for 1 day after which the medium was replaced with fresh growth medium containing G418 (Gibco) at 0.5 mg/ml final concentration. Drug-resistant colonies were selected after approximately 8 days and then tested for ^14C-uric acid transport activity. The HEK293/URAT1-model cells are plated on Poly-D-Lysine Coated 96-well Plates at a density of 125,000 cells per well.
Cells were grown overnight (20-26 hours) at 37° C. in an incubator. Plates were allowed to come to room temperature and media was washed out with one wash of 250 μl of Wash Buffer (125 mM Na Gluconate, 10 mM Hepes ph 7.3). Compound or vehicle is added in assay buffer with ^14C-Uric Acid for a final concentration of 125 μM Uric Acid with a specific activity of 54 mCi/mmol. Assay Buffer is 125 mM Sodium Gluconate, 4.8 mM Potassium Gluconate, 1.2 mM Potassium phosphate, monobasic, 1.2 mM magnesium sulfate, 1.3 mM Ca Gluconate, 5.6 mM Glucose, 25 mM HEPES, pH 7.3. Plates were incubated at room temperature for 10 minutes then washed 3 times with 50 μl Wash Buffer and 3 times with 250 μl Wash Buffer. Microscint 20 Scintillation Fluid was added and plates were incubated overnight at room temperature to equilibrate. Plates are then read on the TopCount Plate Reader and an EC50 value generated. (See Enomoto et al, Nature, 2002, 417, 447-451 and Anzai et al, J. Biol. Chem., 2004, 279, 45942-45950.)
Compounds as described herein were tested according to the protocol described above for the URAT-1 model assay; the results are shown in the table below wherein: […]

Row | Structure (SMILES) | EC50 [nM]
1 | O=C(O)C1(Sc2ccc(F)cc2-c2ccc(C3CC3)cc2)CCC1 [Example 1F] | 500 to 10000
2 | CC(C)(Sc1ccccc1-c1ccc(CO)cc1)C(=O)O [Example 1C] | 50 to 500
3 | O=C(O)C1(Sc2ccccc2-c2ccc(CO)cc2)CCC1 [Example 1E] | 50 to 500
4 | CC(C)(Sc1ccccc1-c1ccc(C(N)=O)cc1)C(=O)O [Example 1B] | 500 to 10000

The next lines start with the values.

Row | EC50 [nM] | Structure (SMILES)
5 | 1 to 50 | N#Cc1ccc(-c2cc(F)ccc2SC2(C(=O)O)CCC2)cc1 [Example 1G]
6 | 1 to 50 | N#Cc1ccc(-c2ccccc2SC2(C(=O)O)CCC2)cc1 [Example 1D]
